From patent US9737493B2, “Compositions and methods for modulating DNMT1 inhibitor activity” (University of Louisville Research Foundation, Inc., priority 2012, dated 2017)

Experiments:
[1] = system: U937 cells; experiment: Western blot for PARP-1 and caspase-3 cleavage; assay type: cell-based, human; conditions: U937, 1 μM XB05
Experimental: (§1) FIG. 3: XB05 Induces Apoptotic and Nonapoptotic Cell Death in Malignant Cell Lines. (A) Trypan blue exclusion assay for three human cell lines following treatment with XB05 for 72 h at the concentrations indicated. Data points represent the mean+/−SEM for three independent experiments. (B) Representative phase contrast microscopy images of cells treated with vehicle (72 h), XB05 (72 h with 1 μM for U937 and Hs27, or 2 μM for A549), or 6 μg/mL camptothecin (U937 for 6 h, A549 and Hs27 for 48 h). Cells undergoing apoptotic (black arrows) or non-apoptotic (white arrows) cell death are indicated. (C) Whole cell extracts from cells treated with vehicle, camptothecin, or XB05, as described in part B were western blotted for biochemical markers of apoptosis and GAPDH (loading control). […]
(§2) Western Blotting. […] Proteins were detected using the following primary antibody concentrations: PARP-1 (1:1000), cleaved caspase-3 (1:1000), γ-H2AX (Ser139) ([…]), phospho-eIF2α (Ser51) (1:1000), eIF2α (1:1000), Bip (1:1000), Nrf2 (1:1000), Ku-70 (1:1000) and GAPDH (1:1000). […] Where indicated, band intensities were quantified using the UN-SCAN-IT Gel digitizing software (Silk Scientific, Orem Utah) and normalized to vehicle control.

[2] = system: A549 cells; experiment: Western blot for PARP-1 and caspase-3 cleavage; assay type: cell-based, human; conditions: A549, 2 μM XB05
Experimental: as §1, §2

[3] = system: DU145 cells; experiment: MTT cell proliferation assay; assay type: cell-based; conditions: Homo sapiens, DU-145; DU145, 72 h
Experimental: (§3) Cell Proliferation Assays. The antiproliferative activity of XB05 was tested using a previously published 3-(4,5-dimethylthiazol-2-yl)-2,5-diphenyltetrazolium bromide (MTT) assay protocol (Girvan et al., “AGRO100 inhibits activation of nuclear factor-kappaB (NF-kappaB) by forming a complex with NF-kappaB essential modulator (NEMO) and nucleolin” Molecular Cancer Therapeutics (2006) Vol. 5, No. 7, pp. 1790-1799). Briefly, cells were seeded in quadruplicate wells in 96-well plates and allowed to adhere overnight. […] Plates were incubated with XB05 for 72 h, during which the cell culture medium was not changed. Cell viability was determined and the background corresponding to medium alone (no cells) was subtracted. Data were analyzed as described in the Brief Description of the Drawings.
(§4) XB05 has Cancer-Selective Antiproliferative Activity. XB05 was tested to determine its antiproliferative activity in a variety of human cell lines that are derived from malignant tissues or from non-malignant (immortalized but not transformed) cells and listed in FIG. 1B. As described in Materials and Methods, cells were treated with varying concentrations of XB05 for 72 h and evaluated using the MTT cell proliferation assay.

[4] = system: MDA-MB-231 cells; experiment: MTT cell proliferation assay; assay type: cell-based; conditions: Homo sapiens, MDA-MB-231, 72 h
Experimental: as §3, §4

[5] = system: U937 cells; experiment: Flow cytometric detection of γ-H2AX; assay type: cell-based, human; conditions: U937, 1 μM, 24 h
Experimental: (§5) FIG. 11: XB05 Induces DNA Damage in Malignant Cells. (A) Alkaline comet assays for detection of DNA damage for cells treated as indicated for 72 h. TBHP was a positive control for oxidative DNA damage. Decreased DNA fluorescence in nucleoid comet heads (arrows) and increased smearing of DNA into comet tails (asterisks) is indicated. Scale bar, 400 μm. Data shown are representative of at least two individual experiments for each cell line. (B) Western blot analysis for γ-H2AX and GAPDH (loading control) in whole cell extracts from cells treated with vehicle, UV irradiation (800 μJ, positive control for DSBs), or XB05 (1 μM for U937, 2 μM for A549) after 24 h. Images shown are representative of three individual experiments in each cell line. (C) Flow cytometric detection of γ-H2AX in cells treated as described in part B. Bar graph represents mean+/−SEM for 3 individual experiments in each cell line. Statistical comparison indicated significant differences between vehicle and XB05-treated groups in both cell lines (*p≦0.05).
(§6) Flow Cytometric Assays. Analyses were performed using a FACScalibur flow cytometer (BD Biosciences, Mountain View, Calif.) and FlowJo software (Tree Star, Inc., Ashland, Oreg.). […] Cells were then washed twice with PBS, re-suspended at a density of 1×10^6 cells/mL in PBS and analyzed by flow cytometry.

[6] = system: A549 cells; experiment: Flow cytometric detection of γ-H2AX; assay type: cell-based, human; conditions: A549, 2 μM, 24 h
Experimental: as §5, §6

GI50 [3]: < 500 nM
GI50 [4]: < 500 nM
Compound: CCCCCC(O)C#CC(F)(F)Br (stereo not drawn) [XB05]
time at which PARP-1 and caspase-3 cleavage were apparent [1]: ≤ 24 h
time at which PARP-1 and caspase-3 cleavage were apparent [2]: 48 h
increase in γ-H2AX staining compared to vehicle-treated controls [5]: 4.5 fold
increase in γ-H2AX staining compared to vehicle-treated controls [6]: 2.9 fold
